Consider 20 compounds from PubChem BioAssay (NCI).

Several values for one entry are separate records, joined by “and”; a condition that tells them apart may be missing. Equal values may be shown once.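 Cells were grown in 96-well plates and exposed to each compound for 48 hours at five concentrations; endpoints were interpolated linearly between bracketing concentrations, or set to the highest concentration if not reached. The concentration for 50% growth inhibition is given as GI50. Definition used: TGI = concentration required for complete inhibition of growth.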

Some test systems named below: COLO 205 colon; HL-60(TB) leukemia; OVCAR-8 ovarian; DMS 273 small cell lung; OVCAR-3 ovarian; M19-MEL melanoma; HCT-15 colon; KM12 colon; MALME-3M melanoma; LXFL 529 NSCLC; T-47D breast.
Holding throughout (assay): NCI-60 cell line screen, 48 h

Consider `C/C=C/C=C/c1cc2cc3c(c(O)c2c(=O)[nH]1)C1(CC3)C(O)=c2c(=O)c3c(=O)cc(OC)c(=O)c=3c(=O)c2=C1O` (stereo unspecified), for which the TGI was 1.23 µM and 6.92 µM in the assay with COLO 205 colon; 3.95 µM in the assay on HL-60(TB) leukemia; 5.15 µM and 15.5 µM in the assay with OVCAR-8 ovarian; 7.82 µM in the assay on DMS 273 small cell lung; 1.37 µM and 8.57 µM in the assay with OVCAR-3 ovarian; 13 µM with M19-MEL melanoma. For the same compound, the TGI was 3.68 µM and 15.1 µM in the assay with HCT-15 colon; 16.5 µM in the assay with KM12 colon; 2.19 µM and 12.9 µM in the assay with MALME-3M melanoma; 4.56 µM in the assay with LXFL 529 NSCLC. Besides, the GI50 in the assay with HL-60(TB) leukemia is 669 nM; with OVCAR-8 ovarian, 145 nM and 902 nM; in the assay with OVCAR-3 ovarian it was 200 nM and 1700 nM.

In the case of `Cc1c(Cl)ccc2c1NC(=O)C2(O)CC(=O)c1ccc(Cl)cc1` (stereo unspecified), the TGI in the assay with COLO 205 colon is > 64.9 µM; in the assay with HL-60(TB) leukemia, > 80.6 µM; with OVCAR-8 ovarian it was > 100 µM; with DMS 273 small cell lung, > 100 µM; in the assay on OVCAR-3 ovarian it was > 100 µM; in the assay on M19-MEL melanoma it was 26.9 µM. For the same compound, the TGI is > 60.1 µM in the assay on HCT-15 colon, > 100 µM in the assay with KM12 colon, > 54.4 µM in the assay with MALME-3M melanoma and > 53.3 µM in the assay on LXFL 529 NSCLC.

For `OC12CCC3(OC4CCCCO4)c4ccccc4C3C1c1ccccc12` (stereo unspecified), the TGI in the assay on COLO 205 colon, in the assay with HL-60(TB) leukemia, with OVCAR-8 ovarian, in the assay with DMS 273 small cell lung, in the assay on M19-MEL melanoma and with HCT-15 colon was > 100 µM each time. In addition, the TGI with KM12 colon, in the assay with MALME-3M melanoma and in the assay with LXFL 529 NSCLC was > 100 µM each time.

Turning to `CC1NOC(=O)C1N=Nc1cccc(Cl)c1` (stereo unspecified), the TGI in the assay on COLO 205 colon is 55.7 µM; in the assay with HL-60(TB) leukemia it was 56.8 µM; in the assay on OVCAR-8 ovarian, > 100 µM; with DMS 273 small cell lung it was > 100 µM; in the assay with OVCAR-3 ovarian, 60.4 µM; with M19-MEL melanoma it was 91.7 µM. For the same compound, the TGI in the assay on HCT-15 colon was 42.6 µM; in the assay with KM12 colon, > 100 µM; in the assay on MALME-3M melanoma it was > 100 µM; in the assay with LXFL 529 NSCLC, > 100 µM.

For the compound `CN(C)CCCN1c2ccccc2Sc2ccc(C(F)(F)F)cc21`, the GI50 in the assay on COLO 205 colon is 1380 nM; in the assay with HL-60(TB) leukemia it was 1820 nM; in the assay with OVCAR-8 ovarian it was 1730 nM; in the assay with T-47D breast, 1400 nM; in the assay with HCT-15 colon, 1920 nM; in the assay on KM12 colon, 1650 nM. Also, the GI50 with MALME-3M melanoma was 1560 nM. In addition, the TGI was 3.33 µM and 30 µM in the assay on OVCAR-8 ovarian; 29.4 µM in the assay on DMS 273 small cell lung; 3.18 µM and 29.1 µM in the assay with T-47D breast; 32.3 µM in the assay with M19-MEL melanoma; 3.73 µM and 31 µM and 31.1 µM in the assay with HCT-15 colon; 3.15 µM and 28.4 µM and 30.1 µM in the assay with MALME-3M melanoma. Besides, in the assay on LXFL 529 NSCLC, the TGI is > 100 µM.

For `O=C(/C=C/c1ccccc1)c1ccc(Cl)cc1Cl`, the TGI was 37.2 µM with COLO 205 colon; 36.2 µM in the assay on HL-60(TB) leukemia; 28.4 µM in the assay on OVCAR-8 ovarian; 34 µM in the assay on DMS 273 small cell lung; 40.2 µM in the assay with OVCAR-3 ovarian; 44.5 µM in the assay with M19-MEL melanoma. Moreover, the TGI was found to be 26.4 µM with HCT-15 colon, 34.2 µM with KM12 colon, 46.1 µM with MALME-3M melanoma and 31.1 µM in the assay with LXFL 529 NSCLC.

As for `N#C/C(=C\c1ccc(O)cc1)C(N)=O`, the TGI in the assay with COLO 205 colon, in the assay with HL-60(TB) leukemia, in the assay with OVCAR-8 ovarian, in the assay on DMS 273 small cell lung, in the assay on OVCAR-3 ovarian and with M19-MEL melanoma was > 100 µM in each case. For the same compound, the TGI in the assay on HCT-15 colon, in the assay with KM12 colon, with MALME-3M melanoma and in the assay with LXFL 529 NSCLC was > 100 µM each time.

Regarding `COC(=O)c1c(C(=O)OC)c(-c2ccccc2)n(-c2ccccc2)c(=O)c1-c1ccccc1`, the TGI in the assay on COLO 205 colon, in the assay with HL-60(TB) leukemia, in the assay on OVCAR-8 ovarian, in the assay with DMS 273 small cell lung, in the assay on OVCAR-3 ovarian and with M19-MEL melanoma was > 100 µM each time. In addition, the TGI in the assay with HCT-15 colon, in the assay on KM12 colon, with MALME-3M melanoma and in the assay with LXFL 529 NSCLC was > 100 µM in each case.

Regarding `COC(=O)C(=O)C(C(=O)C(=O)Nc1ccc([N+](=O)[O-])cc1)c1nc2ccccc2[nH]c1=O` (stereo unspecified), the TGI with COLO 205 colon, in the assay with HL-60(TB) leukemia, with OVCAR-8 ovarian, in the assay with DMS 273 small cell lung, in the assay with OVCAR-3 ovarian and in the assay on M19-MEL melanoma was > 100 µM throughout. Also, the TGI in the assay with HCT-15 colon, with KM12 colon, in the assay with MALME-3M melanoma and with LXFL 529 NSCLC was > 100 µM in each case.

Take `COC(=O)CC1(O)C(=O)OCc2c1cc1n(c2=O)Cc2c-1nc1ccccc1c2OC` (stereo unspecified): the TGI was > 100 µM in the assay with COLO 205 colon; 0.778 µM with HL-60(TB) leukemia; > 28.5 µM in the assay with OVCAR-8 ovarian; 3.35 µM in the assay on DMS 273 small cell lung; > 57.4 µM in the assay on OVCAR-3 ovarian; > 100 µM in the assay with M19-MEL melanoma. Further, the TGI with HCT-15 colon, in the assay on KM12 colon, with MALME-3M melanoma and with LXFL 529 NSCLC was > 100 µM in each case.

Consider `O=C1CCC(c2ccccc2)=NN1c1nc2ccccc2s1`, for which the TGI with COLO 205 colon was 18.1 µM; with HL-60(TB) leukemia it was 99.2 µM; in the assay with OVCAR-8 ovarian, > 100 µM; in the assay with DMS 273 small cell lung it was > 100 µM; in the assay with T-47D breast it was 32.7 µM; with OVCAR-3 ovarian, 42.4 µM. Further, the TGI in the assay on M19-MEL melanoma was > 100 µM; in the assay on HCT-15 colon, 99.1 µM; in the assay with KM12 colon it was > 100 µM; in the assay with MALME-3M melanoma, 95.6 µM; in the assay with LXFL 529 NSCLC, > 100 µM.

In the case of `O=C1/C(=C/c2ccc(Cl)cc2)CCC1CNc1ccc(Cl)cc1` (stereo unspecified), the TGI in the assay on COLO 205 colon was 15.8 µM; in the assay on HL-60(TB) leukemia, 22.1 µM; in the assay with OVCAR-8 ovarian, 19.2 µM; with DMS 273 small cell lung it was > 39.9 µM; with OVCAR-3 ovarian, 21.5 µM; in the assay on M19-MEL melanoma, > 50.4 µM. The TGI in the assay on HCT-15 colon turned out to be 15.3 µM; with KM12 colon it was 11.7 µM; in the assay with MALME-3M melanoma, 44.8 µM; in the assay on LXFL 529 NSCLC, 10.5 µM.

Regarding `Cc1cc(N(CCC#N)CCC#N)ccc1/C=C(\NC(=O)/C=C/c1ccccc1)C(=O)Nc1ccccc1Cl`, the TGI in the assay with COLO 205 colon, in the assay on HL-60(TB) leukemia, with OVCAR-8 ovarian, in the assay with DMS 273 small cell lung, in the assay with OVCAR-3 ovarian and with M19-MEL melanoma was > 100 µM in each case. Further, the TGI in the assay with HCT-15 colon, in the assay on KM12 colon, with MALME-3M melanoma and with LXFL 529 NSCLC was > 100 µM in each case.

Take `CCOc1ccc(NC(=O)CC2SC(=Nc3ccc(C)cc3)NC2=O)cc1` (stereo unspecified): the TGI in the assay with COLO 205 colon, in the assay with OVCAR-8 ovarian, with DMS 273 small cell lung, in the assay on OVCAR-3 ovarian, with M19-MEL melanoma and with HCT-15 colon was > 100 µM each time. The TGI in the assay with KM12 colon, in the assay with MALME-3M melanoma and with LXFL 529 NSCLC was > 100 µM in each case.

As for `C=CCNC(=S)NNC(=O)c1c(C)nc2sccn12`, the TGI with COLO 205 colon, with HL-60(TB) leukemia, in the assay with OVCAR-8 ovarian, with DMS 273 small cell lung, with OVCAR-3 ovarian and in the assay on M19-MEL melanoma was > 100 µM each time. In addition, the TGI in the assay on HCT-15 colon, in the assay with KM12 colon, in the assay with MALME-3M melanoma and in the assay on LXFL 529 NSCLC was > 100 µM throughout.

Regarding `COc1ccc(/C=C/C(=O)c2c(-c3ccccc3)nn(C)c(=O)c2N2CC2C)cc1` (stereo unspecified), the TGI with COLO 205 colon is 89.2 µM; in the assay with HL-60(TB) leukemia it was 60.2 µM; in the assay on OVCAR-8 ovarian, > 100 µM; in the assay on DMS 273 small cell lung, 68.5 µM; in the assay with OVCAR-3 ovarian, 67.7 µM; with M19-MEL melanoma, > 100 µM. The TGI was 80.5 µM with HCT-15 colon, > 100 µM in the assay on KM12 colon, > 100 µM in the assay on MALME-3M melanoma and 93.2 µM in the assay on LXFL 529 NSCLC.

As for `Cc1ccc(C)c2c1C1CCCCC3(OCCCO3)C21O` (stereo unspecified), the TGI with COLO 205 colon, in the assay with HL-60(TB) leukemia, with OVCAR-8 ovarian, in the assay on DMS 273 small cell lung, in the assay on OVCAR-3 ovarian and in the assay with M19-MEL melanoma was > 100 µM in each case. The TGI in the assay on HCT-15 colon, in the assay on KM12 colon, in the assay on MALME-3M melanoma and in the assay on LXFL 529 NSCLC was > 100 µM in each case.

Consider `O=P(CN1CCOCC1)(c1ccccc1)c1ccccc1`, for which the TGI in the assay on COLO 205 colon, in the assay on HL-60(TB) leukemia, with OVCAR-8 ovarian, in the assay with DMS 273 small cell lung, with OVCAR-3 ovarian and in the assay with M19-MEL melanoma was > 100 µM each time. The TGI with HCT-15 colon, in the assay on KM12 colon, in the assay on MALME-3M melanoma and with LXFL 529 NSCLC was > 100 µM throughout.

With `CCOc1ccc(C2=NN(CC)C(=O)C(C3C(=O)N(c4ccccc4)N=C3C)C2)cc1` (stereo unspecified), the TGI in the assay with COLO 205 colon, in the assay with HL-60(TB) leukemia, in the assay on OVCAR-8 ovarian, with DMS 273 small cell lung, in the assay with OVCAR-3 ovarian and in the assay on M19-MEL melanoma was > 100 µM throughout. Further, the TGI in the assay on HCT-15 colon, in the assay on KM12 colon, with MALME-3M melanoma and in the assay with LXFL 529 NSCLC was > 100 µM each time.

In the case of `COc1cc2c(oc(=O)c3c4occc4cc(OC)c23)c2cccc(O)c12`, the TGI in the assay on COLO 205 colon, in the assay on HL-60(TB) leukemia, in the assay on OVCAR-8 ovarian, in the assay on DMS 273 small cell lung, in the assay with OVCAR-3 ovarian and with M19-MEL melanoma was > 100 µM in each case. Also, the TGI in the assay on HCT-15 colon, in the assay on KM12 colon, in the assay on MALME-3M melanoma and with LXFL 529 NSCLC was > 100 µM each time.
